According to article PMC7228089, “Odiparcil, a potential glycosaminoglycans clearance therapy in mucopolysaccharidosis VI—Evidence from in vitro and in vivo models” (PLoS ONE, 2020):

Tested on: Arsb^- mice
Test: Urinary excretion of total sulphated GAG (Blyscan) in mice treated with odiparcil
Format: in vivo
Description: MPS VI model nonsense mutation Arsb^m1J homozygous mice (referred to as Arsb^- throughout the manuscript) and WT littermates were obtained from internal breeding of stock mice derived from The Jackson Laboratory strain No: 005598 (C57BL/6J-Arsb^m1J/GrsrJ). Genotyping and Arsb^m1J mutation identification were performed according to the protocol provided by The Jackson Laboratory. Each study group contained mix of male and female: 6 animals in disease progression studies and between 8 and 12 animals in odiparcil treatment studies.
Housing conditions. The animals were housed in groups of 3–10 (for mice) or 2 (for rats) in polypropylene cages (floor area = 1032 cm^2) under standard conditions: room temperature (22 ± 2°C), hygrometry (55 ± 10%), light/dark cycle (12h/12h), air replacement (15–20 volumes/hour), water and food ad libitum. […]
Total sulphated GAG in cell culture media were determined colorimetrically by DMMB method (described in [31] adapted for cell culture media). Total sulphated GAG in snap frozen liver and kidney samples and urine were measured using Blyscan assay from Biocolor Company (UK) following manufacturer’s instructions. […] For GAG in tissues quantification, individual pieces (approximately 50 mg) were removed from the frozen samples (liver and kidney), weighed and digested in 1 mL papain solution prepared according to the Blyscan kit protocol. […]

`Cc1cc(=O)oc2cc(O[C@@H]3SC[C@@H](O)[C@H](O)[C@H]3O)ccc12` [Odiparcil, 4-methyl-7-(5-thio-β-D-xylopyranosyloxy)-2 H-chromen-2-one] was tested, and the “Urinary GAG after discontinuation of the treatment” value (Arsb^- mice, two weeks after discontinuation) was “no elevated GAG were detected on top of the basal level” and the “Total sulphated GAG in urine” value (wild type and Arsb^- mice, oral 1.5 or 4.5 g/kg diet, after 3 and 6 months, early and advanced disease protocols) was “elevation of total GAG in urine”.
